From patent US8680282B2, “Cyclic inhibitors of carnitine palmitoyltransferase and treating cancer” (University Health Network, priority 2007, dated 2014)

target: T1, human CPT1A (Homo sapiens, UniProt P50416); experiment: Human CPT1A LC/MS assay; assay type: biochemical; details: human CPT1A LC/MS assay, dose response format
T1 construct: made in house; host or cells: Saccharomyces cerevisiae (pESC-trp) or cultured mammalian cells (pCDNA3.1); mitochondrial extract
T1 sequence (P50416 1-773): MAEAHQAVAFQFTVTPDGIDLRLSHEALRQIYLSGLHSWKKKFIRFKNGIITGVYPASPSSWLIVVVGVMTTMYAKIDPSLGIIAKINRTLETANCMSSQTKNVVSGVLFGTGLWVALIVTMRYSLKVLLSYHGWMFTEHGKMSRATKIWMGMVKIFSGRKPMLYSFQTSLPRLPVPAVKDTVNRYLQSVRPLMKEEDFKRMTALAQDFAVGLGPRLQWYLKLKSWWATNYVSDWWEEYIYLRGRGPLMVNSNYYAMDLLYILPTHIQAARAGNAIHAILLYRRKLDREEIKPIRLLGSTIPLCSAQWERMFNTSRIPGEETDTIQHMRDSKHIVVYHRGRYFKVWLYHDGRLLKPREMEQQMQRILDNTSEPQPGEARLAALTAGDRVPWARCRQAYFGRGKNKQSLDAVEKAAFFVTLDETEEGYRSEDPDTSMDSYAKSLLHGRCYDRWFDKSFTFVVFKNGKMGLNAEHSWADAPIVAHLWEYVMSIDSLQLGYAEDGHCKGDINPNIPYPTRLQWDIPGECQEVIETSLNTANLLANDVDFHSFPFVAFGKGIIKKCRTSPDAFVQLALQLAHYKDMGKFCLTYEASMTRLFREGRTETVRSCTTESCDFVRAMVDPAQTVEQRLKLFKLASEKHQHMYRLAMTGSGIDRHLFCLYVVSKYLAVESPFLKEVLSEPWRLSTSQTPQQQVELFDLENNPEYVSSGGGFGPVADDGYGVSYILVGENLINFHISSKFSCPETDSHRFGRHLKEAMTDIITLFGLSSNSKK
Excerpt: Nucleotide sequences encoding human CPT1 enzymes were individually cloned into the yeast expression vector pESC-trp at the Cla1 (5′ terminus) and Pac1 (3′ terminus) restriction sites by PCR amplification of the open reading frame using oligonucleotide primers designed to encode the wild-type CPT1 protein sequence. Standard molecular biology techniques were used to transform and express the CPT1 proteins in the yeast Saccharomyces cerevisiae. The yeast cells were lysed by enzymatic degradation of the cell wall by Zymolase, and the mitochondria were isolated by standard biochemical techniques. The integrity of the isolated mitochondria was monitored by determining the activity of succinate dehydrogenase in the mitochondrial preparations. The mitochondrial extracts were stored at −80° C. in buffer containing 10 mM HEPES pH 7.4 and 250 mM sucrose.
Human CPT1 (A, B, C) genes were additionally cloned into the pCDNA3.1 vector individually for expression in cultured mammalian cells. Cells expressing the exogenous CPT1A were identified and grown under standard conditions. Mammalian cells were harvested, and mitochondrial extracts prepared using standard biochemical methods. The mitochondrial extracts were stored at −80° C. in buffer containing 10 mM HEPES pH 7.4 and 250 mM sucrose.
Assays were performed in 96-well plate format. Each 100 μL reaction contained 40 mM KCl, 50 mM TrisHCl pH 7.5, and 250 mM mannitol (Assay Buffer), and 1.6 μg protein of an extract, 20 μM palmitoyl-CoA, 50 μM L-carnitine, and 10 ug/mL BSA. Reactions were incubated at room temperature and stopped after 10 minutes by extraction with 200 μL of water saturated n-butanol containing myristoyl carnitine (500 nM) as an internal standard. The samples were thoroughly mixed, and the phases separated by centrifugation. Samples were prepared for analysis with a 10 fold dilution of the n-butanol phase containing the reaction product palmitoyl carnitine into a 50:50 (acetonitrile:water) solvent for analysis. 5 μL of prepared sample was separated on a Phenomenex Jupiter 5μ C4 reverse-phase column using an Agilent 1100 HPLC with a gradient from 50% acetonitrile (0.5% acetic acid) to 100% acetonitrile and quantified by detection with a Bruker Esquire 3000plus mass spectrometer. The abundance of the palmitoyl carnitine product was determined relative to the internal standard and the actual quantity of palmitoyl carnitine can be determined from a standard curve prepared using the n-butanol solution containing the internal standard.
Compounds were evaluated in two formats, a screening format, and a dose response format. The screening format was performed by adding 25 μL compound in 20% DMSO and Assay Buffer to 25 μL of extract containing […] and Assay Buffer, followed by a 10 minute incubation at room temperature. 50 μL of 40 μM palmitoyl-CoA in Assay Buffer was added to the reaction mixture, mixed and incubated for 10 minutes at room temperature. A negative control for activity was also performed where the carnitine was omitted from the reaction. A positive control for activity was also performed by omitting compound from the solution containing 20% DMSO and Assay Buffer. The reaction mixture was extracted and analyzed as described above. The inhibition by compound was determined by comparing the control relative activity to the relative activity observed in wells containing the compound. Relative activity was determined by subtracting the relative intensity (area palmitoyl carnitine/area myristoyl carnitine) observed in the negative control from the relative intensity observed in the experimental well, and dividing by the relative activity observed in the positive control.
[formula] Compound characterization by dose response format was performed using the above described assay conditions and a 16 point compound titration in 2 fold compound dilution steps. The DMSO concentration was kept constant at 20% (v/v) for all compound concentrations.

Structure (SMILES) | IC50 [µM]
CCCCCCCCc1ccc(NC(=O)NC2(CC(=O)O)CC[N+](C)(C)CC2)cc1 [Example S2, 4-(Carboxymethyl)-1,1-dimethyl-4-(3-(4-octylphenyl)ureido)piperidinium 2,2,2-trifluoroacetate] | 10 to 100
CCCCCc1ccc(S(=O)(=O)NC2(CC(=O)O)CCN(C)CC2)cc1 [Example S3, 4-(carboxymethyl)-1-methyl-4-(4-pentylphenylsulfonamido)piperidinium 2,2,2-trifluoroacetate] | 10 to 100
CCCCCc1ccc(S(=O)(=O)NC2(CC(=O)O)CC[N+](C)(C)CC2)cc1 [Example S4, 4-(Carboxymethyl)-1,1-dimethyl-4-(4-pentylphenylsulfonamido)piperidinium 2,2,2-trifluoroacetate] | ≤ 1
C[N+]1(C)CCC(CC(=O)O)(NC(=O)c2ccc(CCc3ccccc3)o2)CC1 [Example S5, 4-(Carboxymethyl)-1,1-dimethyl-4-(5-phenethylfuran-2-carboxamido)-piperidinium 2,2,2-trifluoroacetate] | 1 to 10
C[N+]1(C)CCC(CC(=O)O)(NC(=O)c2ccc(C#Cc3ccccc3)o2)CC1 [Example S6, 4-(Carboxymethyl)-1,1-dimethyl-4-(5-(phenylethynyl)furan-2-carboxamido)-piperidinium 2,2,2-trifluoroacetate] | 100 to 1000
CCCCCCCCc1ccc(NS(=O)(=O)NC2(CC(=O)O)CCN(C)CC2)cc1 [Example S7, 4-(carboxymethyl)-1-methyl-4-(N-(4-octylphenyl)sulfamoylamino)-piperidinium 2,2,2-trifluoroacetate] | 10 to 100
CCCCCCCCc1ccc(NS(=O)(=O)NC2(CC(=O)O)CC[N+](C)(C)CC2)cc1 [Example S8, 4-(carboxymethyl)-1,1-dimethyl-4-(N-(4-octylphenyl)sulfamoylamino)piperidinium 2,2,2-trifluoroacetate] | 1 to 10
CCCCCCCCc1ccc(NC(=O)NC2(CC(=O)O)CCC[NH+](C)C2)cc1 (stereo not drawn) [Example S9, 3-(Carboxymethyl)-1-methyl-3-(3-(4-octylphenyl)ureido)piperidinium 2,2,2-trifluoroacetate] | 10 to 100
CCCCCCCCc1ccc(NC(=O)NC2(CC(=O)O)CCC[N+](C)(C)C2)cc1 (stereo not drawn) [Example S10, 3-(carboxymethyl)-1,1-dimethyl-3-(3-(4-octylphenyl)ureido)-piperidinium 2,2,2-trifluoroacetate] | 10 to 100
CCCCCCCCc1ccc(NS(=O)(=O)NC2(CC(=O)O)CCCN(C)C2)cc1 (stereo not drawn) [Example S15, 3-(carboxymethyl)-1-methyl-3-(N-(4-octylphenyl)sulfamoylamino)-piperidinium 2,2,2-trifluoroacetate] | 10 to 100
CCCCCCCCc1ccc(NS(=O)(=O)NC2(CC(=O)O)CCC[N+](C)(C)C2)cc1 (stereo not drawn) [Example S16, 3-(carboxymethyl)-1,1-dimethyl-3-(N-(4-octylphenyl)sulfamoylamino)-piperidinium 2,2,2-trifluoroacetate] | 1 to 10
CCCCCCCCc1ccc(NC(=O)NC2(CC(=O)O)CC[N+](C)(C)C2)cc1 (stereo not drawn) [Example S18, 3-(carboxymethyl)-1,1-dimethyl-3-(3-(4-octylphenyl)ureido)-pyrrolidinium 2,2,2-trifluoroacetate] | 10 to 100
CCCCCc1ccc(S(=O)(=O)NC2(CC(=O)O)CC[N+](C)(C)C2)cc1 (stereo not drawn) [Example S20, 3-(carboxymethyl)-1,1-dimethyl-3-(4-pentylphenylsulfonamido)-pyrrolidinium 2,2,2-trifluoroacetate] | 1 to 10
CCCCCCCCCCc1ccc(C(=O)NC2(CC(=O)O)CCN(C)C2)cc1 (stereo not drawn) [Example S21, 3-(carboxymethyl)-3-(4-decylbenzamido)-1-methylpyrrolidinium 2,2,2-trifluoroacetate] | 10 to 100
CCCCCCCCCCc1ccc(C(=O)NC2(CC(=O)O)CC[N+](C)(C)C2)cc1 (stereo not drawn) [Example S22, 3-(Carboxymethyl)-3-(4-decylbenzamido)-1,1-dimethylpyrrolidinium 2,2,2-trifluoroacetate] | 1 to 10
CCCCCCCCc1ccc(NC(=O)NC2(CC(=O)O)CNC2)cc1 [Example S23, 3-(carboxymethyl)-3-(3-(4-octylphenyl)ureido)azetidinium 2,2,2-trifluoroacetate] | 1000 to 2500
CCCCCCCCc1ccc(NC(=O)NC2(CC(=O)O)C[N+](C)(C)C2)cc1 [Example S24, 3-(Carboxymethyl)-1,1-dimethyl-3-(3-(4-octylphenyl)ureido)azetidinium 2,2,2-trifluoroacetate] | 10 to 100
O=C(O)CC1(NC(=O)c2ccc(C#Cc3ccccc3)o2)CNC1 [Example S26, 3-(carboxymethyl)-3-(5-(phenylethynyl)furan-2-carboxamido)-azetidinium 2,2,2-trifluoroacetate] | 100 to 1000
CCCCCc1ccc(S(=O)(=O)NC2(CC(=O)O)CN(C)C2)cc1 [Example S27, 3-(carboxymethyl)-1-methyl-3-(4-pentylphenylsulfonamido)azetidinium 2,2,2-trifluoroacetate] | 10 to 100
CCCCCc1ccc(S(=O)(=O)NC2(CC(=O)O)C[N+](C)(C)C2)cc1 [Example S29, 3-(carboxymethyl)-1,1-dimethyl-3-(4-pentylphenylsulfonamido)-azetidinium 2,2,2-trifluoroacetate] | 10 to 100
CCCCCCCCc1ccc(N(C)S(=O)(=O)NC2(CC(=O)O)CCC[N+](C)(C)C2)cc1 (stereo not drawn) [Example S30, 3-(carboxymethyl)-1,1-dimethyl-3-(N-methyl-N-(4-octylphenyl)-sulfamoylamino)piperidinium 2,2,2-trifluoroacetate] | 10 to 100
